pIC50: −log10 of the molar value. Activity calls are given as the source filed them.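 How the source made its calls: active means any compound with an IC50 of 100 nM or lower; inactive means the rest.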
Molecular target: Insulin-degrading enzyme (Homo sapiens) (UniProt P14735)
Experiment: inhibitors of IDE decapeptide proteolysis, dose response, counter-screen for IDE exo-site inhibitor project, biochemical, kinetic mode (AID 1259348);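 on z-score: purified IDE bound to fluorescein-labelled 6b probe FL-6b at the exo-site; probe displacement lowers polarization so hits show a drop in FP signal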
Conditions: purified human IDE, fluorogenic decapeptide proteolysis; for z-score: measured here: primary FP probe displacement screen, stronger effect = lower value

Sequence of Insulin-degrading enzyme (Homo sapiens) (P14735 42-1019 limits assumed): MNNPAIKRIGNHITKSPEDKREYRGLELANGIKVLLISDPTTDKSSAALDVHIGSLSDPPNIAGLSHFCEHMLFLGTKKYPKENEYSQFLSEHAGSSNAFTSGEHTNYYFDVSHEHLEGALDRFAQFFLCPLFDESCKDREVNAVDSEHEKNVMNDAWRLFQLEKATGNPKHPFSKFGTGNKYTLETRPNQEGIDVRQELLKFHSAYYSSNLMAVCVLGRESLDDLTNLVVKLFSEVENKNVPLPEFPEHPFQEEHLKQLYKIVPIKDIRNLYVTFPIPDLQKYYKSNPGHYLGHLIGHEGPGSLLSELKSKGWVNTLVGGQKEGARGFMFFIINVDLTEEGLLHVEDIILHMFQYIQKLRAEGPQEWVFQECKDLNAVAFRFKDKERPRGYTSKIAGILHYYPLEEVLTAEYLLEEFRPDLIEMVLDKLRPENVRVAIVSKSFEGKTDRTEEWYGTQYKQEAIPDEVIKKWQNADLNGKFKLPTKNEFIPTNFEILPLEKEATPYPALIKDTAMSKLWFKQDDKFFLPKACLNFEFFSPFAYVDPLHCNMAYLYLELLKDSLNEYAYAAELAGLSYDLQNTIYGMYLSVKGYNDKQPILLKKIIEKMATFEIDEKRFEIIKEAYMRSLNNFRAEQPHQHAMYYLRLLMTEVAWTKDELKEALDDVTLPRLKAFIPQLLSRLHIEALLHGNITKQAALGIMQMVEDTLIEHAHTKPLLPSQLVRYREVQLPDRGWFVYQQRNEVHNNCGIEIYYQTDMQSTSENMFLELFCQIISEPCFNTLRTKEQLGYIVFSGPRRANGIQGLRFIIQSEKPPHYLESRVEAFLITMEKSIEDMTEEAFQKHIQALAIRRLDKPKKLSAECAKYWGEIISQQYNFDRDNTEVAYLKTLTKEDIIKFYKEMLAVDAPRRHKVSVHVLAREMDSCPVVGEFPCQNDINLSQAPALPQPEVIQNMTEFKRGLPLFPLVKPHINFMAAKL

Molecule `Cc1ccccc1-c1ccc([C@H]2[C@H](CO)N3C(=O)CN(S(C)(=O)=O)C[C@@H]23)cc1` has a pIC50 of 4.76 and a z-score of -1.37.
Molecule `Cc1ccccc1-c1ccc([C@@H]2[C@H]3CN(C(=O)c4ccncc4)CC(=O)N3[C@H]2CO)cc1` has a pIC50 of 5.38 and a z-score of -13.6.
`O=C(c1ccncc1)N1C[C@@H]2N[C@H](C1)C2c1ccc(/C=C/c2ccccc2)cc1` (stereo partly specified) gave a pIC50 of 5.06 and a z-score of -13.8.
`Cc1ccccc1-c1ccc([C@H]2[C@@H](CO)N3CCCCN(C(=O)NC4CCCC4)C[C@H]23)cc1` showed a pIC50 of 6.06 and a z-score of -17.3.
`Cc1cccc(-c2ccc([C@@H]3[C@@H](CO)N4CCCCN(C(=O)c5ccncc5)C[C@@H]34)cc2)c1` gave a pIC50 of 4.78 and a z-score of -3.14.
With `CO[C@H]1CN(C)C(=O)c2cc(NC(=O)c3ccc(Oc4ccccc4)cc3)ccc2OC[C@H](C)NC[C@H]1C` the pIC50 was 5.55 and the z-score was -14.2.
`Cc1ccccc1-c1ccc([C@@H]2[C@@H](CO)N3CCCCN(C(=O)CN4CCOCC4)C[C@@H]23)cc1` showed a pIC50 of 5.19 and a z-score of -8.
For `Cc1ccccc1-c1ccc([C@@H]2[C@H](CO)N3C(=O)CN(C(=O)NC4CCCC4)C[C@@H]23)cc1`, the pIC50 was 5.44 and the z-score was -8.13.
`Cc1ccccc1-c1ccc([C@H]2[C@H](CO)N3C(=O)CN(C(=O)Cc4ccccn4)C[C@@H]23)cc1` was tested, and the pIC50 was 5.36 and the z-score was -13.9.
In the case of `Cc1cccc(-c2ccc([C@@H]3[C@H]4CN(C(=O)c5cccnc5)CC(=O)N4[C@H]3CO)cc2)c1`, the pIC50 was 5.38 and the z-score was -17.7.
`CCCNC(=O)N1CC(=O)N2[C@@H](CO)[C@H](c3ccc(-c4cccc(C)c4)cc3)[C@@H]2C1` was tested, and the pIC50 was 5.62 and the z-score was -15.8.
`Cc1ccccc1-c1ccc([C@H]2[C@@H](CO)N3C(=O)CN(C(=O)c4cccnc4)C[C@H]23)cc1` was tested, and the pIC50 was 5.70 and the z-score was -17.2.
`OC[C@H]1[C@@H](c2ccc(C#Cc3ccccc3F)cc2)[C@@H]2CN(Cc3cncnc3)CCCCN12` showed a pIC50 of 5.28 and a z-score of -15.1.
Molecule `O=C(CC1CC1)N1CC(=O)N2[C@H](C1)[C@H](c1ccc(C#Cc3ccccc3)cc1)[C@@H]2CO` has a pIC50 of 5.15 and a z-score of -15.9.
`CO[C@@H]1CN(C)C(=O)c2cc(NC(=O)c3ccc(Oc4ccccc4)cc3)ccc2OC[C@@H](C)NC[C@H]1C` showed a pIC50 of 5.60 and a z-score of -13.5.
`Cc1cccc(-c2ccc([C@@H]3[C@H]4CN(C(=O)c5ccncc5)CCCCN4[C@H]3CO)cc2)c1` gave a pIC50 of 5.31 and a z-score of -17.
Molecule `Cc1ccccc1-c1ccc([C@H]2[C@H](CO)N3C(=O)CN(C(=O)Nc4cccc(F)c4)C[C@@H]23)cc1` has a pIC50 of 5.40 and a z-score of -3.03.
In the case of `Cc1ccccc1-c1ccc([C@H]2[C@@H](CO)N3CCCCN(S(=O)(=O)c4cn(C)cn4)C[C@H]23)cc1`, the pIC50 was 5.66 and the z-score was -16.6.
Molecule `COc1ccc(NC(=O)N2CCCCN3[C@H](CO)[C@H](c4ccc(-c5ccccc5C)cc4)[C@@H]3C2)cc1` has a pIC50 of 5.47 and a z-score of -0.82.
In the case of `Cc1ccccc1-c1ccc(C2[C@@H]3CN(Cc4cncnc4)C[C@H]2N3)cc1` (stereo partly specified), the pIC50 was 5.17 and the z-score was -2.59.
`Cc1cccc(-c2ccc([C@@H]3[C@@H](CO)N4CCCCN(CCC(F)(F)F)C[C@@H]34)cc2)c1` was tested, and the pIC50 was 4.15 and the z-score was -0.68.
Molecule `Cc1ccccc1-c1ccc([C@H]2[C@@H](CO)N3CCCCN(S(=O)(=O)Cc4ccccc4)C[C@@H]23)cc1` has a pIC50 of 4.36 and a z-score of -1.65.
`O=C(C1CCOCC1)N1CC(=O)N2[C@H](CO)[C@H](c3ccc(C#Cc4cccc(F)c4)cc3)[C@H]2C1` gave a pIC50 of 5.28 and a z-score of -19.3.
`CCC(=O)N1[C@H](CO)[C@H](c2ccc(-c3ccccc3OC)cc2)[C@H]1CNC(C)=O` gave a pIC50 of 4.97 and a z-score of -8.24.
`Cc1ccccc1-c1ccc([C@@H]2[C@@H](CO)N3CCCCN(S(=O)(=O)c4ccc(F)cc4)C[C@@H]23)cc1` gave a pIC50 of 6.47 and a z-score of -17.5.
Molecule `Cc1ccccc1-c1ccc([C@H]2[C@@H](CO)N3CCCCN(CC4CC4)C[C@@H]23)cc1` has a pIC50 of 4.35 and a z-score of -3.48.
In the case of `COc1ccccc1-c1ccc([C@H]2[C@@H](CO)N3CCCCN(C(=O)NC4CCCC4)C[C@H]23)cc1`, the pIC50 was 5.59 and the z-score was -19.1.
In the case of `Cc1ccccc1-c1ccc([C@H]2[C@@H](CO)N3CCCCN(S(=O)(=O)c4cn(C)cn4)C[C@@H]23)cc1`, the IC50 was > 100 µM (inactive) and the z-score was -3.44.
`Cc1ccccc1-c1ccc([C@H]2[C@H]3CN(C(=O)NC4CCCC4)CCCCN3[C@H]2CO)cc1` was tested, and the pIC50 was 5.25 and the z-score was -5.69.
For `Cc1cccc(-c2ccc([C@H]3[C@H](CO)N4C(=O)CN(C(=O)NC5CCCCC5)C[C@@H]34)cc2)c1`, the pIC50 was 5.49 and the z-score was -16.3.
`Cc1ccccc1-c1ccc([C@H]2[C@H](CO)N3CCCCN(CC4CC4)C[C@@H]23)cc1` gave a pIC50 of 4.52 and a z-score of -2.04.
For `Cc1ccccc1-c1ccc([C@@H]2[C@@H](CO)N3CCCCN(C(=O)c4cccnc4)C[C@@H]23)cc1`, the pIC50 was 4.89 and the z-score was -7.98.
With `COc1cccc(-c2ccc([C@@H]3[C@@H](CO)N4CCCCN(C(=O)Cc5ccncc5)C[C@@H]34)cc2)c1` the pIC50 was 4.83 and the z-score was -2.33.
`Cc1ccccc1-c1ccc([C@@H]2[C@@H](CO)N3C(=O)CN(S(C)(=O)=O)C[C@@H]23)cc1` gave a pIC50 of 5.74 and a z-score of -12.7.
Work on `Cc1cccc(-c2ccc([C@@H]3[C@@H](CO)N4CCCCN(S(=O)(=O)c5ccccc5C)C[C@@H]34)cc2)c1` yielded a pIC50 of 7.00 and a z-score of -20.3.
`COc1ccccc1-c1ccc([C@@H]2[C@@H](C#N)N(C(=O)CN(C)C)[C@H]2CO)cc1` was tested, and the pIC50 was 5.28 and the z-score was -12.4.
Molecule `CO[C@H]1CN(C)C(=O)c2cc(NC(=O)c3ccc(Oc4ccccc4)cc3)ccc2OC[C@@H](C)NC[C@@H]1C` has a pIC50 of 5.54 and a z-score of -13.2.
For `Cc1cccc(-c2ccc([C@@H]3[C@H](CO)N4CCCCN(S(=O)(=O)c5cn(C)cn5)C[C@@H]34)cc2)c1`, the pIC50 was 5.68 and the z-score was -19.5.
Molecule `Cc1ccccc1-c1ccc([C@H]2[C@H](CO)N3C(=O)CN(C(=O)c4ccc(F)cc4)C[C@@H]23)cc1` has a pIC50 of 5.52 and a z-score of -16.5.
`Cc1cccc(-c2ccc([C@@H]3[C@@H](CO)N4C(=O)CN(C(=O)c5cnccn5)C[C@@H]34)cc2)c1` gave a pIC50 of 5.30 and a z-score of -17.5.
Molecule `Cc1ccccc1-c1ccc([C@H]2[C@@H](CO)N3CCCCN(C(=O)NC4CCCC4)C[C@@H]23)cc1` has a pIC50 of 6.40 and a z-score of -19.3.
Molecule `CCS(=O)(=O)N1CCCCN2[C@H](CO)[C@@H](c3ccc(-c4ccccc4C)cc3)[C@@H]2C1` has a pIC50 of 6.39 and a z-score of -18.3.
`CC(C)NC(=O)N1CCCCN2[C@@H](CO)[C@H](c3ccc(C#Cc4ccccc4F)cc3)[C@@H]2C1` was tested, and the pIC50 was 5.92 and the z-score was -12.7.
Work on `Cc1ccccc1-c1ccc([C@H]2[C@H](CO)N3C(=O)CN(C(=O)c4cccnc4)C[C@@H]23)cc1` yielded a pIC50 of 5.21 and a z-score of -12.4.
Molecule `Cc1ccccc1-c1ccc([C@@H]2[C@@H](CO)N3CCCCN(C(=O)NC4CCCC4)C[C@H]23)cc1` has a pIC50 of 5.44 and a z-score of -14.5.
In the case of `Cc1ccccc1-c1ccc(C2[C@@H]3CN(C(=O)C4CCOCC4)C[C@H]2N3)cc1` (stereo partly specified), the pIC50 was 5.66 and the z-score was -7.71.
With `Cc1ccccc1-c1ccc([C@@H]2[C@H]3CN(S(=O)(=O)c4cn(C)cn4)CCCCN3[C@H]2CO)cc1` the pIC50 was 5.77 and the z-score was -18.5.
In the case of `COc1ccccc1-c1ccc([C@@H]2[C@@H](C#N)N(C(=O)c3cccnc3)[C@@H]2CO)cc1`, the pIC50 was 5.92 and the z-score was -33.8.
